Consider 1 compound from publication PMC6803074 (Experimental hematology, 2019).

Assay in all cases: cell proliferation assay
Holding throughout (format): cell-based

In test [1] the test system is BCR-ABL1. The conditions noted are these: BCR-ABL1-positive cells; proliferation read-out; stated gain.
Test [2] deals with BCR-ABL1. Particulars: BCR-ABL1-positive cells; proliferation read-out; stated gain. This is another data set of the same source.
Test [3] concerns BCR-ABL1. The conditions noted are these: BCR-ABL1-positive cells; proliferation read-out; stated gain. The source holds these as a separate data set.
The subject of test [4] is BCR-ABL1. Particulars: BCR-ABL1-positive cells; proliferation read-out.

As to `Cc1ccc(C(=O)NNC(=O)c2c(C)cccc2Cl)cc1C#Cc1cnc2ccccc2c1` [K0706], the IC50 (usually the concentration needed to halve the response being measured) in test [1] is on record as 165 nM; in test [2], 154 nM; in test [3] it was 1967 nM; in test [4] it was 7 nM.
